According to US20250145608A1, “KRAS DEGRADING COMPOUNDS COMPRISING ANNULATED 2-AMINO-3-CYANO THIOPHENES” (Boehringer Ingelheim Int'l GmbH Corp., priority 2021, published 2025):
Like-named read-outs stand apart in the source and are kept apart here.

Key:
Assay type in all cases: cell-based
NCI-H358 cells = test: NCI-H358 CTG proliferation assay (120 h) (NSCLC, G12C); details: Homo sapiens
Procedure, shortened: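 NCI-H358 cells (KRAS G12C) were seeded at 2000/well (assay 1) or 200/well (assay 2) in RPMI-1640 + 10% FCS and dosed with a logarithmic series, DMSO-normalized. After 120 h, viability was read by CellTiter-Glo luminescence as percent of DMSO control, with a T0 read at dosing. IC50 came from a four-parameter fit.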

AsPC-1 cells = test: AsPC-1 CTG proliferation assay (120 h) (pancreatic cancer, G12D); details: Homo sapiens, ASPC1, AsPC-1 proliferation
Experimental: AsPC-1 CTG Proliferation Assay (120 h) (Pancreatic Cancer, G12D)
The CTG assay is designed to measure quantitatively the proliferation of AsPC-1 cells (ATCC […]), using the CellTiter Glow Assay Kit (Promega G7571). Cells are grown in RPMI medium (ATCC) supplemented with Fetal Calf Serum (Life Technologies, Gibco BRL, Cat. No. 10270-106). On “day 0” 2000 AsPC-1 cells are seeded in 60 μL RPMI ATCC+10% FCS+ Penstrep in a 384-well plate, flat and clear bottom (Greiner, PNr. 781091). Cells are then incubated in the plates at 37° C. in a CO2 incubator overnight. On day 1, compounds (10 mM stock in DMSO) are added with the ECHO acoustic liquid handler system (Beckman Coulter), including DMSO controls. Plates are incubated for 120 h, and cell viability is measured using CellTiter-Glo luminescent cell viability reagent (Promega product code G7570). Viability (stated as percent of control) is defined as relative luminescence units RLU of each well divided by the RLU of cells in DMSO controls. IC50 values are determined from viability measurements by non-linear regression using a four-parameter model.

GP2D cells = test: GP2D proliferation assay (120 h) (colorectal cancer, G12D)
Experimental: GP2D Proliferation Assay (120 h) (Colorectal Cancer, G12D)
GP2D cells (ATCC No. CRL-5807) are dispensed into white 384-well plates, flat and white bottom (Perkin Elmer, 6007680) at a density of 500 cells per well in 40 μl DMEM (Sigma, D6429)+1× GlutaMAX (Gibco, 35050038)+10% FCS (fetal calf serum). […] Compounds (10 mM stock in DMSO) are added at logarithmic dose series using the HP Digital Dispenser D300 (Tecan), including DMSO controls and normalizing for added DMSO. For the TO time point measurement, untreated cells are analyzed at the time of compound addition. Plates are incubated for 120 h, and cell viability is measured using CellTiter-Glo luminescent cell viability reagent (Promega product code G7570). Viability (stated as percent of control) is defined as relative luminescence units RLU of each well divided by the RLU of cells in DMSO controls. IC50 values are determined from viability measurements by non-linear regression using a four parameter model.

KRAS4B G13D = biological target: T1, KRAS4B G13D (Homo sapiens, UniProt P01116, G13D); test: HiBit KRAS4B mutant spectrum degradation assay, KRAS4B G13D in GP5d cells (18 h); details: KRAS mutation G13D
T1 construct: HiBit; expressed in transfected cells; host or cells: GP5d cells (ECACC 95090715), stably transduced with lentivirus, CMV promoter
Text: (§1) The therapeutically relevant mutant KRAS constructs (WT, G12C, G12D, G12V, G13D) were obtained by site directed mutagenesis using a KRAS4B WT cDNA construct as a template. GP5d cells (ECACC Cat. No. 95090715) were transduced with lentiviral vectors expressing mutant KRAS4B cDNA under control of a CMV promoter. Stably transduced cells were selected using a neomycin selectable marker encoded on the construct.
(§2) To assess PROTAC-mediated degradation of various KRAS mutants, GP5d cells stably transduced with KRAS4B constructs as described above were seeded at 25000 cells per well in 100 μL Dulbecco's Modified Eagle medium (Sigma cat. no. D6429) supplemented with 10% fetal calf serum into white bottom opaque 96 well plates (Perkin Elmer cat no. 5680). Plates were incubated at 37° C., 5% CO2 in a humidified incubator over night to allow the cells to adhere. […] Plates were further incubated at 37° C. for 18 hours. Following incubation, 100 μL per well Promega Nano-Glo HiBit lytic detection reagent mix (Promega Nano-Glo HiBit Lytic Detection System #N3050), prepared according to the manufacturer's instructions in the kit, were added. To allow for adequate cell lysis, plates were incubated on an orbital shaker for 15 min and further incubated 30 min at room temperature. Upon completion of cell lysis, luminescence was measured using an Envision plate reader using the Ultrasensitive Luminescence Protocol for 96 well plates. Luminescence levels were normalized by the values obtained with DMSO-treated samples and plotted as percent of DMSO control. DC50 values were computed using a four parametric logistic model and are reported in nM in Table 65 for representative example (Ex.) compounds of the invention. Dmax values represent the maximal extent of degradation observed and is stated as percent of control (% Ctrl.) treatments in Table 66 for representative example (Ex.) compounds of the invention.

KRAS4B WT = biological target: T2, KRAS4B WT (Homo sapiens, UniProt P01116); test: HiBit KRAS4B mutant spectrum degradation assay, KRAS4B WT in GP5d cells (18 h); details: KRAS mutation G12WT
T2 construct: HiBit; expressed in transfected cells; host or cells: GP5d cells (ECACC 95090715), stably transduced with lentivirus, CMV promoter
Text: as §1, §2

KRAS4B G12V = biological target: T3, KRAS4B G12V (Homo sapiens, UniProt P01116, G12V); test: HiBit KRAS4B mutant spectrum degradation assay, KRAS4B G12V in GP5d cells (18 h); details: KRAS mutation G12V
T3 construct: HiBit; expressed in transfected cells; host or cells: GP5d cells (ECACC 95090715), stably transduced with lentivirus, CMV promoter
Text: as §1, §2

KRAS4B G12D = biological target: T4, KRAS4B G12D (Homo sapiens, UniProt P01116, G12D); test: HiBit KRAS4B mutant spectrum degradation assay, KRAS4B G12D in GP5d cells (18 h); details: KRAS mutation G12D
T4 construct: HiBit; expressed in transfected cells; host or cells: GP5d cells (ECACC 95090715), stably transduced with lentivirus, CMV promoter
Text: as §1, §2

[1] = assay 1, read-out: H358 (assay 1) IC50
[2] = assay 2, read-out: H358 (assay 2) IC50

T4 sequence (P01116 1-188 isoform P01116-2 G12D): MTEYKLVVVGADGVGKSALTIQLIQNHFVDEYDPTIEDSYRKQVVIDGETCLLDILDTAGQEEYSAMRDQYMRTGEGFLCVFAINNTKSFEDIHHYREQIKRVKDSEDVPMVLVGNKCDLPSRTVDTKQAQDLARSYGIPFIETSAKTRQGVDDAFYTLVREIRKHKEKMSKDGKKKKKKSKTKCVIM
T1 sequence (P01116 1-188 isoform P01116-2 G13D): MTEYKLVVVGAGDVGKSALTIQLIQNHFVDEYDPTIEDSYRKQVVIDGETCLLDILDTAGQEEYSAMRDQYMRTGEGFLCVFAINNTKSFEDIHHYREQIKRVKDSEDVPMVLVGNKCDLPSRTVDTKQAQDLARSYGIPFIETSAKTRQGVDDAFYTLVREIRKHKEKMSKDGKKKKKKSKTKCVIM
T2 sequence (P01116 1-188 isoform P01116-2): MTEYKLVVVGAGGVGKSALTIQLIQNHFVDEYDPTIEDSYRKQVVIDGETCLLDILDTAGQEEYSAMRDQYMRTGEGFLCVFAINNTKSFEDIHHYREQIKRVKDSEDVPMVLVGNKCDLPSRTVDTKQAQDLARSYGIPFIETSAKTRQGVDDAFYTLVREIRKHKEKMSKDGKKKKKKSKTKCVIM
T3 sequence (P01116 1-188 isoform P01116-2 G12V): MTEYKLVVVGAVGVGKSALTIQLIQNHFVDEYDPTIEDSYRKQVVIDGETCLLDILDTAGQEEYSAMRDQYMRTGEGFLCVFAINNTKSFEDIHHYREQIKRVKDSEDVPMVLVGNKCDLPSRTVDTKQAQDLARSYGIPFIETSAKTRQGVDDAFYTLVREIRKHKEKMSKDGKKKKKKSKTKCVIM

Cc1ncsc1-c1ccc([C@H](C)NC(=O)[C@@H]2C[C@@H](O)CN2C(=O)C(C(C)C)n2cc(OCCCCN3CCCN(c4nccc(-c5noc([C@@]6(C)CCCc7sc(N)c(C#N)c76)n5)n4)[C@@H](C)C3)nn2)cc1 (some centres unmarked) [I-28] showed an IC50 (NCI-H358 cells; [1]) of 32 nM, an IC50 (NCI-H358 cells; [2]) of 81.4 nM and an IC50 (AsPC-1 cells) of 72 nM. It also gave an IC50 (GP2D cells) of 2.9 nM.
For Cc1ncsc1-c1ccc(CNC(=O)[C@@H]2C[C@@H](O)CN2C(=O)[C@@H](c2cc(OCCCN3CCCN(c4nccc(-c5noc([C@@]6(C)CCCc7sc(N)c(C#N)c76)n5)n4)[C@@H](C)C3)no2)C(C)C)cc1 (single isomer, unassigned) [I-25], the IC50 (NCI-H358 cells; [1]) was 45.6 nM, the IC50 (NCI-H358 cells; [2]) was 63.9 nM and the IC50 (AsPC-1 cells) was 93.4 nM. For the same molecule, the DC50 (KRAS4B G13D) was 2.5 nM, the “Dmax at 18 h” value (KRAS4B G13D) was 94 % Ctrl and the DC50 (KRAS4B WT) was 0.8 nM. For the same molecule, the “Dmax at 18 h” value (KRAS4B WT) was 96 % Ctrl, the DC50 (KRAS4B G12V) was 3.8 nM and the “Dmax at 18 h” value (KRAS4B G12V) was 90.5 % Ctrl. For the same molecule, the DC50 (KRAS4B G12D) was 1.3 nM and the “Dmax at 18 h” value (KRAS4B G12D) was 96 % Ctrl.
Molecule Cc1ncsc1-c1ccc([C@H](CO)NC(=O)[C@@H]2C[C@@H](O)CN2C(=O)[C@H](C(C)C)n2cc(OCCCCN3CCCN(c4nccc(-c5noc([C@@]6(C)CCCc7sc(N)c(C#N)c76)n5)n4)[C@@H](C)C3)nn2)cc1 [I-29] has an IC50 (NCI-H358 cells; [1]) of 28.8 nM, an IC50 (AsPC-1 cells) of 97.2 nM and a DC50 (KRAS4B G13D) of 1.2 nM. The “Dmax at 18 h” value (KRAS4B G13D) was 89.7 % Ctrl, the IC50 (GP2D cells) was 8.5 nM and the DC50 (KRAS4B WT) was 0.8 nM. For the same molecule, the “Dmax at 18 h” value (KRAS4B WT) was 97.2 % Ctrl, the DC50 (KRAS4B G12V) was 3.5 nM and the “Dmax at 18 h” value (KRAS4B G12V) was 90.5 % Ctrl. For the same molecule, the DC50 (KRAS4B G12D) was 1.5 nM and the “Dmax at 18 h” value (KRAS4B G12D) was 96.0 % Ctrl.
For Cc1ncsc1-c1ccc([C@H](CCO)NC(=O)[C@@H]2C[C@@H](O)CN2C(=O)[C@H](C(C)C)n2cc(OCCCCN3CCCN(c4nccc(-c5noc([C@@]6(C)CCCc7sc(N)c(C#N)c76)n5)n4)[C@@H](C)C3)nn2)cc1 [I-38], the IC50 (NCI-H358 cells; [1]) was 98.8 nM, the IC50 (AsPC-1 cells) was 128 nM and the IC50 (GP2D cells) was 12.6 nM.
Work on Cc1ncsc1-c1ccc(CNC(=O)[C@@H]2C[C@@H](O)CN2C(=O)[C@@H](c2cc(OCCCCN3CCCN(c4nccc(-c5noc([C@@]6(C)CCCc7sc(N)c(C#N)c76)n5)n4)[C@@H](C)C3)no2)C(C)C)cc1 (single isomer, unassigned) [I-27] yielded an IC50 (NCI-H358 cells; [1]) of 60.5 nM, an IC50 (NCI-H358 cells; [2]) of 35.2 nM and an IC50 (AsPC-1 cells) of 144 nM. For the same molecule, the DC50 (KRAS4B G13D) was 1.6 nM, the “Dmax at 18 h” value (KRAS4B G13D) was 93 % Ctrl and the IC50 (GP2D cells) was 5.1 nM. The DC50 (KRAS4B WT) was 0.7 nM, the “Dmax at 18 h” value (KRAS4B WT) was 95.5 % Ctrl and the DC50 (KRAS4B G12V) was 2.7 nM. The “Dmax at 18 h” value (KRAS4B G12V) was 86 % Ctrl, the DC50 (KRAS4B G12D) was 1.1 nM and the “Dmax at 18 h” value (KRAS4B G12D) was 95 % Ctrl.
Work on Cc1ncsc1-c1ccc([C@H](CO)NC(=O)[C@@H]2C[C@@H](O)CN2C(=O)[C@H](C(C)C)n2cc(OCCCC(C)N3CCCN(c4nccc(-c5noc([C@@]6(C)CCCc7sc(N)c(C#N)c76)n5)n4)[C@@H](C)C3)nn2)cc1 (some centres unmarked) [I-30] yielded an IC50 (NCI-H358 cells; [1]) of 29.3 nM, an IC50 (AsPC-1 cells) of 69 nM and a DC50 (KRAS4B G13D) of 1 nM. The “Dmax at 18 h” value (KRAS4B G13D) was 91.9 % Ctrl, the IC50 (GP2D cells) was 6.4 nM and the DC50 (KRAS4B WT) was 0.4 nM. The “Dmax at 18 h” value (KRAS4B WT) was 97.8 % Ctrl, the DC50 (KRAS4B G12V) was 2.2 nM and the “Dmax at 18 h” value (KRAS4B G12V) was 91.0 % Ctrl. For the same molecule, the DC50 (KRAS4B G12D) was 0.8 nM and the “Dmax at 18 h” value (KRAS4B G12D) was 96.1 % Ctrl.
Cc1ncsc1-c1ccc([C@@H](NC(=O)[C@@H]2C[C@@H](O)CN2C(=O)[C@H](C(C)C)n2cc(OCCCCN3CCCN(c4nccc(-c5noc([C@@]6(C)CCCc7sc(N)c(C#N)c76)n5)n4)[C@@H](C)C3)nn2)[C@H](O)C(C)C)cc1 (single isomer, unassigned) [I-45] showed an IC50 (NCI-H358 cells; [1]) of 98.6 nM, an IC50 (NCI-H358 cells; [2]) of 13.4 nM and an IC50 (AsPC-1 cells) of 51.4 nM. For the same molecule, the IC50 (GP2D cells) was 9.4 nM.
